Experiments:
[1] = test system: U251 DR5-Luc cells; assay: Cell based high throughput death receptor screen (DR5-Luc reporter bioluminescence); conditions: compound at 100 nM, 24 h; positive control Tunicamycin 100 nM
Experimental: High throughput screening (HTS) was performed by the HTS core at the University of Pennsylvania. U251 DR5-Luc cells were plated at 2.0×10^3 cells/well across ten 384 well plates. Plates were then incubated in a humidified environment at 37° C. and 5% CO2 for twenty-four hours. Compound from the Selleckchem Bioactive Compound Library I was added to each well at 100 nM (approximately 3200 compounds). Tunicamycin (100 nM) and DMSO (0.1% v/v) served a positive and negative plate controls. Brite-Lite (PerkinElmer, Waltham, MA) reagent was added all plates twenty-four hours following the addition of compound, and plates were assayed on Envision Xcite (PerkinElmer) plate reader. The mean (μ) and standard deviation (σ) for each plate was used to transform total flux for each compound (xi) into z-scores using the formula z=(xi−μ/σ). Calculation of Z-prime for this screening assay was based upon the formula set forth by Zhang et al utilizing Tunicamycin and DMSO as a positive and negative controls respectively. Positive hits were identified as compounds that produced z-prime values greater than Tunicamycin. Reporter activity was validated following compound incubation and bioluminescence imaging on the IVIS spectrum (PerkinElmer).

[2] = test system: NS039; assay: Compound dilution studies and cell viability (Cell Titer Glo); assay type: cell-based, human; conditions: for IC50: NS039, 72 h
Experimental: (§1) Cells were plated at density of 7.5-1.0×10^4 cells/well in 96 well plates using their respective media. Plates were then incubated in a humidified environment at 37° C. and 5% CO2 for twenty-four hours. An eleven-point dilution series of positive hits from our HTS screen was added to each plate. Cells treated with 0.1% DMSO served as a vehicle control. Plates were incubated with compound for seventy-two hours at 37° C. and 5% CO2, followed by addition of Cell Titer Glo® (Promega). Bio-luminescent readings were obtained using a Synergy HT luminometer (BioTek, Winooski, VT). Raw bio-luminescent values were normalized to their vehicle treated controls, and then fit to a modified Hill Equation using OriginPro 8 (OriginLab, Northampton, MA) in order to calculate IC50 values. All dilution series experiments were performed as biological triplicates.

[3] = test system: T4213; assay: as above; assay type: cell-based; conditions: for IC50: T4213, 72 h
Experimental: as §1

[4] = Cargo loading efficiency of Se-PCPP hydrogel (UV-Vis / ICP-OES); assay type: physicochemical; conditions: UV-vis spectroscopy
Experimental: Se-PCPP hydrogel: A mixture of 1 mL PCPP (4 mg·mL^−1, PBS) and 10.3 mg Na2HPO4 were mixed together and pH was adjusted to 7.4 by addition of HCl (1 M). Next, 1.4 μL of selenocystamine dihydrochloride (110 mg·mL^−1, PBS) were added to the mixture and vortexed for 30 seconds. The mixture was dropping into 10 mL of a CaCl2 (8.8%, DI H2O) and left to react under vigorous stirring for 20 minutes at room temperature. Finally, the solution was transferred to conical tubes and centrifuged at 2 k rpm for 8 min. The supernatant was discarded, and the pellet was re-suspended in DI water. After repeating this process three times, the Se-PCPP solution was re-suspended in DI water, vortexed at 14 k rpm and stored at 4° C. The final concentration of […] in the sample was determined using ICP-OES performed on a Spectro Genesis ICP.
Cargo loaded Se-PCPP hydrogel: For the cargo loaded Se-PCPP hydrogel, the PCPP (4 mg/mL, PBS) solution was mixed with the desired amount of cargo (solutions of doxorubicin, FITC-BSA or quisinostat at 1 mg/mL) and 10.3 mg Na2HPO4. The total volume was completed to 2 mL with PBS, pH was adjusted to 7.4 by addition of HCl (1 M) and incubated for 10 minutes before cross-linking with selenocystamine dihydrochloride as described above. The final drug concentration in the sample were determined using UV-Vis spectroscopy by determining the loading efficiency (LE), calculated as follows: % LE=([stock drug]−[non-loaded drug]/[stock drug])*100.

[5] = test system: T4213 orthotopic tumor; assay: Orthotopic tumor implantation and treatment with Quisinostat; assay type: in vivo, athymic nude mice
Description: T4213 cells were stably modified using a lentiviral vector containing GFP and Luciferase (Biosettia, San Diego, CA). Cells were resuspended in serum free media, and then 3.0×10^5 cells were stereotactically injected into the right striatum of five-week female athymic nude mice (Charles River Labs). Tumor bioluminescence was quantified on the IVIS spectrum (PerkinElmer, Hopkinton, MA) following intraperitoneal administration of D-Luciferin (Goldbio, St Louis MO) two days following cell implantation. In a separate experiment, mice underwent serial bioluminescent imaging following orthotopic T4213 implantation. Mice were assigned to different treatment groups such that the total flux (photons/s) was equivalent between groups (6.4×10^6 photons/s). Treatment was initiated immediately following bioluminescent imaging, and consisted of once daily intraperitoneal administration of 2-Hydroxypropyl-β-cyclodextrin (vehicle, Cayman Chemical, Ann Arbor MI) or 10 mg/kg Quisinostat (Cayman Chemical) for a total of eight doses (FIG. 5A). […] Bioluminescent imaging was repeated seventy-two hours after the last treatment was administered. […] Serial bioluminescence was assessed using a one-way repeated measures ANOVA followed by a post-hoc Tukey test. Post-treatment total flux was background corrected, and the percent change in total flux was analyzed using a Mann-Whitney U test. […]

[6] = test system: CHOP and DR5; assay: Western blot analysis of CHOP and DR5; assay type: cell-based
Experimental: Western blot analysis was performed using standard techniques as understood in the art, including those described at least by S. Sheikh et. al., Mol. Cancer Res. 2019, 17 (5), 1102-1114.

[7] = test system: Patient-derived glioblastoma organoids (GBOs); assay: Brain tumor organoids, compound incubation, viability and immunofluorescence; assay type: cell-based, human; conditions: 1.0 μM
Experimental: Glioblastoma organoids (GBOs) were generated from primary brain tumor as previously described.3 Briefly, primary brain tumor specimens were minced into approximately 1 mm pieces following clinical confirmation of pathologic diagnosis and incubated in GBO medium containing 50% DMEM:F12 (Thermo Fisher Scientific), 50% Neurobasal (Thermo Fisher Scientific), 1× GlutaMax (Thermo Fisher Scientific), 1× NEAAs (Thermo Fisher Scientific), 1× PenStrep (Thermo Fisher Scientific), 1× N2 supplement (Thermo Fisher Scientific), 1× B27 w/o vitamin A supplement (Thermo Fisher Scientific), 1× 2-mercaptoethanol (Thermo Fisher Scientific), and […] human insulin (Sigma) per well and placed on an orbital shaker rotating at 120 rpm within a 37° C., 5% CO2, and 90% humidity sterile incubator. Organoids would generally form 2-4 weeks following initial culturing. Organoids were then incubated in GBO containing media containing either DMSO (0.1%) or 1.0 μM quisinostat with media changes every two days for seven days total. Post-treatment images were taken on brightfield microscope and samples were subsequently fixed in 4% paraformaldehyde×30 minutes for immunofluorescence analysis.
Serial tissue sections (20 μm) were sliced using a cryostat (Leica, CM3050S), and melted onto charged slides (Thermo Fisher Scientific). Slides were dried at room temperature and stored at −20° C. until ready for immunohistology. For immunofluorescence staining, the tissue sections were outlined with a hydrophobic pen (Vector Laboratories) and washed with TBS containing 0.1% Tween-20 (v/v). Non-specific binding was blocked using a solution containing 10% donkey serum (v/v), 0.5% Triton X-100 (v/v), 1% BSA (w/v), 0.1% gelatin (w/v), and 22.52 mg/ml glycine in TBST for 1 hour at room temperature. […]
GBOs were imaged on a Zeiss LSM 710 confocal microscope (Zeiss) using a 20× objective with Zen 2 software (Zeiss). Images were quantified and analyzed using ImageJ software. […]

[8] = test system: T4213 and NS039 cells; assay: Sphere formation assay; assay type: cell-based; conditions: 1.0 μM
Experimental: T4213 and NS039 cells were plated at 2000 cells/well in six well plates in the presence of 0.1% DMSO or 1.0 μM Quisinostat in biological triplicate for twelve days. On day twelve, individual wells were imaged on a Lionheart Fx microscope at 4× magnification following addition of NucBlue™ (Hoechst 33342, Invitrogen). Circular blue objects greater than 50 μm in diameter and less than […] were counted as neurospheres. Differences in sphere formation between cells and treatments were assessed using a one-way ANOVA followed by post-hoc Tukey's test in GraphPad Prism 8. P-values less than 0.05 were considered significant.

[9] = Hydrogel degradation and cargo release after X-ray irradiation; assay type: physicochemical
Experimental: X-ray irradiation The radiation dose delivered to the sample is quantified in gray (Gy) with the relation of 1 Gy=1 J/kg. The X-ray irradiation was performed on an X-RAD 320ix irradiator (PXi, North Branford, CT) operated at 320 kV, 12.5 mA, focal spot of 8 mm^2 and with an aluminum filter of 2 mm delivering a dosage rate of 2.65 Gy/minute. In brief, the Se-PCPP hydrogel was sampled into 1 mL tube and placed in the irradiator chamber for the desired time depending onto the X-ray dose to be delivered.
Se-PCPP hydrogel ([Au]=0.2 mg/mL) was suspended into 1 mL of freshly prepared PBS/10 FBS in micro-centrifuge tubes and centrifuged at 4 k rpm for 8 minutes. Samples were irradiated with the desired X-ray dose and incubated at 37° C. for the overall experiment time. At the desired time point, samples were vortexed, centrifuged at 4000 rpm for 8 minutes and the supernatant was gently collected for quantification of the released cargo by ICP-OES or UV-vis spectroscopy. 1 mL of freshly prepared incubation medium was rapidly added to each sample, all were incubated at 37° C. until the next time point.

## CCS(=O)(=O)Nc1ccc(Oc2ccc(F)cc2F)c(-c2cn(C)c(=O)c3[nH]ccc23)c1 [ABBV-075]
[1]
  bioluminescent signal in cell-based death receptor assay: greater than our positive control Tunicamycin

## COc1ccc(-c2nc(N3CCOCC3)c3sc(CN(C)c4ncc(C(=O)NO)cn4)cc3n2)cn1 [CUDC-907]
[1]
  bioluminescent signal in cell-based death receptor assay: greater than our positive control Tunicamycin
[2]
  IC50: single digit nanomolar
[3]
  IC50: single digit nanomolar

## O=C(/C=C/c1ccc(CN(CCO)CCc2c[nH]c3ccccc23)cc1)NO [Dacinostat]
[1]
  bioluminescent signal in cell-based death receptor assay: greater than our positive control Tunicamycin

## Cn1cc(CNCC2CCN(c3ncc(C(=O)NO)cn3)CC2)c2ccccc21 [Quisinostat]
[4]
  loading efficiency in Se-PCPP hydrogel: 81%
[5]; 10 mg/kg once daily intraperitoneal with breaks, seventy-two hours after last treatment
  tumor bioluminescence: significant reduction
[5]; systemic administration
  mouse body weight: reduction of mouse body weight
[6]
  CHOP dependent DR5 expression: at nanomolar concentrations
[1]
  bioluminescent signal in cell-based death receptor assay: greater than our positive control Tunicamycin
[2]
  IC50: single digit nanomolar
[2]; normal human astrocytes vs NS039
  therapeutic window (ratio of IC50s between NHA and NS039): favorable therapeutic window
[7]; five distinct GBO lines
  Caspase staining: increased
  Ki67 staining: decreased
[7]; seven days
  organoid size: noticeably shrink
[3]
  IC50: single digit nanomolar
[3]; normal human astrocytes vs T4213
  therapeutic window (ratio of IC50s between NHA and T4213): favorable therapeutic window
[8]; Hoechst staining
  cell morphology, sphere formation and integrity: shrunken and fragmented cell morphology
[8]; twelve days, control 120-130 neurospheres per well, p<0.05
  neurosphere formation: 4-27 neurospheres per well

## COc1cccc2c1C(=O)c1c(O)c3c(c(O)c1C2=O)C[C@@](O)(C(=O)CO)C[C@@H]3O[C@H]1C[C@H](N)[C@H](O)[C@H](C)O1 [doxorubicin]
[4]
  loading efficiency in Se-PCPP hydrogel: 74%

## FITC-BSA
[4]
  loading efficiency in Se-PCPP hydrogel: 91%
[9]
  delivery profile from Se-PCPP hydrogel: slower than both quisinostat and doxorubicin

— patent US12486401B2, “‘Smart’ hydrogel for the radiosensitization and sustained delivery of therapeutics triggered by irradiation” (The Trustees of the University of Pennsylvania, priority 2019, dated 2025)
